We go through two molecules from paper PMC7125101, “Molecular bases for HOIPINs-mediated inhibition of LUBAC and innate immune responses” (Communications Biology, 2020).

pIC50: −log10 of the molar value. Where a name gives a salt, the structure may show the parent alone. Read-outs that look alike come from different tables or passages of the source.

One test has as its system WT-MEF. In words: cells. The arrangement: species or system human tumour lines, HEK293T, mouse MEF; Cell viability after 72 h, CellTiter-Glo luminescent assay. As to conditions: 72 h. From the text: (§1) Importantly, the polymorphisms in HOIP are closely associated with ABC-DLBCL[23]. […] Therefore, we investigated the effect of HOIPINs on B cell lymphoma cells. […] In ABC-DLBCL cell lines, the phosphorylation of p105 and p65 and the expression of NF-κB target genes were suppressed by HOIPINs (Fig. 6d, e). Moreover, the phosphorylation of IκBα was decreased concomitantly with the reduced intracellular amounts of linear polyubiquitin in HOIPIN-1-treated HBL1 cells (an ABC-DLBCL cell line), but not in BJAB cells (a GCB-DLBCL cell line) (Fig. 6f). […] GCB-DLBCL cells (BJAB, SU-DHL-4, and HT) and ABC-DLBCL cells (TK, DLBCL2, and OYB) were cultured in the presence of DMSO or 10 μM HOIPIN-1. Taking the cell viabilities in the presence of DMSO as 100%, the relative cell viabilities of respective cell line in the presence of HOIPIN-1 were assessed by a CellTiter-Glo luminescent cell viability assay. b HOIPIN-8 enhanced the cell death of ABC-DLBCL cells than HOIPIN-1. DLBCL2 cells or BJAB cells were treated with DMSO, 10 μM HOIPIN-1, or 10 μM HOIPIN-8 for the indicated period, and the relative cell viabilities were assessed as in a. c Caspase activation in ABC-DLBCL cells by HOIPIN-8. Cells were treated with or without 10 μM HOIPIN-8 for 24 h, and cell lysates were immunoblotted with the indicated antibodies. d Reduced NF-κB activation in ABC-DLBCL cells by HOIPIN-8. Cells were treated and analyzed as in c. e HOIPIN-1 suppresses the expression of NF-κB target genes in ABC-DLBCL cells. Cells were treated with 10 μM HOIPIN-1 for 24 h, and qPCR analyses were performed. f Intracellular linear ubiquitin and IκBα phosphorylation in ABC-DLBCL cells are diminished by HOIPIN-1. HBL1 and BJAB cells were treated with 10 μM HOIPIN-1 for the indicated period, and cell lysates were immunoblotted with the indicated antibodies. g HOIPIN-8 has potent inhibitory effects on NF-κB activation and linear ubiquitination in ABC-DLBCL cells than those in HOIPIN-1. HBL1 cells were treated with the indicated concentrations of HOIPIN-1 or -8 for 24 h, and cell lysates were immunoblotted with the indicated antibodies. In b, e, data are shown as mean ± SEM, NS not significant, *P < 0.05, **P < 0.01, ***P < 0.001, ****P < 0.0001, by one-way ANOVA with Tukey’s post hoc test. A549, HEK293T, HeLa (ATCC), optineurin-deficient HeLa[31], HOIP-deficient HeLa, C885A mutant of HOIP-restored HeLa, wild-type MEF, and Sharpin-deficient cpdm MEF cells were cultured in DMEM containing 10% fetal bovine serum, 100 IU/ml penicillin G, and 100 μg/ml streptomycin. […]

The subject of a further test is T1, cpdm MEF.
T1 construct: cpdm (Sharpin-deficient)
In words: cells. Further details: species or system human tumour lines, HEK293T, mouse MEF; Cell viability after 72 h, CellTiter-Glo luminescent assay. As to conditions: 72 h.
From the text: as §1

The next test deals with Karpas1160P. In words: cells. The arrangement: species or system human tumour lines, HEK293T, mouse MEF; Cell viability after 72 h, CellTiter-Glo luminescent assay. As to conditions: Homo sapiens, HEK-293T, 72 h.
A further test concerns HT. Kind of test: cells. Particulars: Homo sapiens, HT, 72 h. The arrangement: species or system human tumour lines, HEK293T, mouse MEF; Cell viability after 72 h, CellTiter-Glo luminescent assay.
In a further test the test system is KM-H2. In words: cells. Particulars: Homo sapiens, KM-H2, 72 h. The arrangement: species or system human tumour lines, HEK293T, mouse MEF; Cell viability after 72 h, CellTiter-Glo luminescent assay.
In the next test the test system is DLBCL2. Kind of test: cells. The arrangement: species or system human tumour lines, HEK293T, mouse MEF; Cell viability after 72 h, CellTiter-Glo luminescent assay. Particulars: Homo sapiens, HEK-293T, 72 h; read-out: HOIPIN-1 (IC50).
The next test relates to BJAB. Kind of test: cells. The arrangement: species or system human tumour lines, HEK293T, mouse MEF; Cell viability after 72 h, CellTiter-Glo luminescent assay. Particulars: Homo sapiens, BJAB, 72 h.
The next test relates to OYB. Kind of test: cells. The arrangement: species or system human tumour lines, HEK293T, mouse MEF; Cell viability after 72 h, CellTiter-Glo luminescent assay. As to conditions: Homo sapiens, HEK-293T, 72 h.
In another test the test system is A549. In words: cells. Particulars: Homo sapiens, A549, 72 h. The arrangement: species or system human tumour lines, HEK293T, mouse MEF; Cell viability after 72 h, CellTiter-Glo luminescent assay.
For another test, the system named is Jurkat. In words: cells. The arrangement: species or system human tumour lines, HEK293T, mouse MEF; Cell viability after 72 h, CellTiter-Glo luminescent assay. Particulars: Homo sapiens, Jurkat, 72 h.
The next test concerns TK. Kind of test: cells. The arrangement: species or system human tumour lines, HEK293T, mouse MEF; Cell viability after 72 h, CellTiter-Glo luminescent assay. As to conditions: Homo sapiens, HEK-293T, 72 h.
For the next test, the system named is SU-DHL-4. Kind of test: cells. Further details: species or system human tumour lines, HEK293T, mouse MEF; Cell viability after 72 h, CellTiter-Glo luminescent assay. Particulars: Homo sapiens, SU-DHL-4, 72 h.
The test system of a further test is HBL1. In words: cells. The arrangement: species or system human tumour lines, HEK293T, mouse MEF; Cell viability after 72 h, CellTiter-Glo luminescent assay. Particulars: HBL1, 72 h.
A further test has as its system HeLa. In words: cells. Further details: species or system human tumour lines, HEK293T, mouse MEF; Cell viability after 72 h, CellTiter-Glo luminescent assay. Particulars: Homo sapiens, HeLa, 72 h.
Another test has as its target T2, HOIP (Homo sapiens, UniProt Q96EP0).
T2 construct: gene RNF31; RING2-LDD domain, residues 853–1072
In words: X-ray crystal structure at […] Å; also MALDI-TOF intact mass adduct (+[…]) on petit-LUBAC and inhibition of HOIP~ubiquitin thioester formation. It is filed as binding.

A further test concerns HEK293T. In words: cells. Further details: species or system human tumour lines, mouse MEF; Cell viability after 72 h, CellTiter-Glo luminescent assay. Particulars: Homo sapiens, HEK-293T, 72 h. An excerpt:
Importantly, the polymorphisms in HOIP are closely associated with ABC-DLBCL[23]. […] Therefore, we investigated the effect of HOIPINs on B cell lymphoma cells. […] In ABC-DLBCL cell lines, the phosphorylation of p105 and p65 and the expression of NF-κB target genes were suppressed by HOIPINs (Fig. 6d, e). Moreover, the phosphorylation of IκBα was decreased concomitantly with the reduced intracellular amounts of linear polyubiquitin in HOIPIN-1-treated HBL1 cells (an ABC-DLBCL cell line), but not in BJAB cells (a GCB-DLBCL cell line) (Fig. 6f). […] GCB-DLBCL cells (BJAB, SU-DHL-4, and HT) and ABC-DLBCL cells (TK, DLBCL2, and OYB) were cultured in the presence of DMSO or 10 μM HOIPIN-1. Taking the cell viabilities in the presence of DMSO as 100%, the relative cell viabilities of respective cell line in the presence of HOIPIN-1 were assessed by a CellTiter-Glo luminescent cell viability assay. b HOIPIN-8 enhanced the cell death of ABC-DLBCL cells than HOIPIN-1. DLBCL2 cells or BJAB cells were treated with DMSO, 10 μM HOIPIN-1, or 10 μM HOIPIN-8 for the indicated period, and the relative cell viabilities were assessed as in a. c Caspase activation in ABC-DLBCL cells by HOIPIN-8. […] Cells were treated and analyzed as in c. e HOIPIN-1 suppresses the expression of NF-κB target genes in ABC-DLBCL cells. […]

Take `COc1ccccc1C(=O)/C=C/c1ccccc1C(=O)O` [HOIPIN-1, 2-[(1E)-3-(2-methoxyphenyl)-3-oxoprop-1-en-1yl] benzoic acid sodium salt]: the negative-log IC50 (pIC50) in the test on WT-MEF (read-out: HOIPIN-1 (IC50)) is less than 4.00; with cpdm MEF (read-out: HOIPIN-1 (IC50)) it was less than 4.00; in the test with Karpas1160P (read-out: HOIPIN-1 (IC50)), 4.96; in the test with HT (read-out: HOIPIN-1 (IC50)), 4.32; in the test with KM-H2 (read-out: HOIPIN-1 (IC50)) it was 5.02; with DLBCL2 it was 4.95. Further, the negative logarithm of the IC50 (pIC50) with BJAB (read-out: HOIPIN-1 (IC50)) is 4.28; in the test with OYB (read-out: HOIPIN-1 (IC50)) it was 4.80; in the test on A549 (read-out: HOIPIN-1 (IC50)), less than 4.00; in the test on Jurkat (read-out: HOIPIN-1 (IC50)), 4.69; in the test with TK (read-out: HOIPIN-1 (IC50)), 5.01; in the test on SU-DHL-4 (read-out: HOIPIN-1 (IC50)) it was 4.33. Moreover, the pIC50 with HBL1 (read-out: HOIPIN-1 (IC50)) is 4.79; in the test on HeLa (read-out: HOIPIN-1 (IC50)), 4.47; in the test on HEK293T (read-out: HOIPIN-1 (IC50)), 4.39. Moreover, the “X-ray crystal structure at 1.54 Å; also MALDI-TOF intact mass adduct (+263) on p” value on HOIP was “HOIPINs are covalently attached to the catalytic Cys885 of HOIP via Michael addition”.

With `Cn1cc(-c2ccc(C(=O)O)c(/C=C/C(=O)c3c(F)cc(-c4cn[nH]c4)cc3F)c2)cn1` [HOIPIN-8, 2-{(E)-3-[2,6-difluoro-4-(1H-pyrazol-4-yl)-phenyl]-3-oxo-propenyl}-4-(1-methyl-1H-pyraol-4-yl)-benzoic acid sodium salt], the negative-log IC50 (pIC50) is 4.30 with WT-MEF (read-out: HOIPIN-8 (IC50)); 4.29 in the test with cpdm MEF (read-out: HOIPIN-8 (IC50)); 4.56 with Karpas1160P (read-out: HOIPIN-8 (IC50)); less than 4.52 in the test on HT (read-out: HOIPIN-8 (IC50)); 4.39 in the test with KM-H2 (read-out: HOIPIN-8 (IC50)); less than 4.52 with BJAB (read-out: HOIPIN-8 (IC50)). The pIC50 is 4.84 in the test on OYB (read-out: HOIPIN-8 (IC50)); less than 4.00 in the test on A549 (read-out: HOIPIN-8 (IC50)); less than 4.00 in the test on Jurkat (read-out: HOIPIN-8 (IC50)); 5.43 in the test with TK (read-out: HOIPIN-8 (IC50)); less than 4.52 in the test with SU-DHL-4 (read-out: HOIPIN-8 (IC50)); 4.78 in the test with HBL1 (read-out: HOIPIN-8 (IC50)). Also, the pIC50 was less than 4.00 in the test on HeLa (read-out: HOIPIN-8 (IC50)) and 4.15 in the test with HEK293T (read-out: HOIPIN-8 (IC50)).
